The results in this text go back to patent US7294635B2 (Portola Pharmaceuticals, Inc., priority 2003, dated 2007).

The structures appear in SMILES notation. A value given as a limit tells only on which side of the number the result lay.

The test system of the first assay is ADP-induced human platelet aggregation. Description: Inhibition of ADP-mediated platelet aggregation in vitro using platelet-rich plasma (PRP assay). The class given is cell-based. To be noted: 5 min; human platelet-rich plasma, 2 μM ADP, 96-well microtiter, OD 650 nm at 5 min; read-out: Activity in the PRP assay. Here is the method:
This Example Provides an Assay for the Inhibition of ADP-Mediated Platelet Aggregation In Vitro Using Platelet-Rich Plasma (PRP)
Platelet-rich plasma (PRP) is prepared by centrifugation at 160×g for 20 minutes at room temperature. PRP is collected, and the platelet concentration is determined using a Coulter counter or hemocytometer (platelet concentration should be 2-4×10^8 platelets per mL).
Inhibition of ADP-dependent aggregation is preferably determined in 96-well flat-bottom microtiter plates using a microtiter plate shaker and plate reader similar to the procedure described by Frantantoni et al., Am. J. Clin. Pathol. […] All steps are performed at room temperature. The total reaction volume of 0.2 mL/well includes: PRP (˜6×10^7 total platelets in the presence of plasma), serial dilutions of test compounds (buffer for control wells) in 0.6% DMSO. After about 5 minutes preincubation at room temperature, ADP is added to a final concentration of 2 μM which induces submaximal aggregation. Buffer is added instead of ADP to one set of control wells (ADP-control). The OD of the samples is then determined at 650 nm using a microtiter plate reader (Softmax, Molecular Devices, Menlo Park, Calif.) resulting in the 0 minute reading. The plates are then agitated for 5 min on a microtiter plate shaker and the 5 minute reading is obtained in the plate reader. Aggregation is calculated from the decrease of OD at 650 nm at t=5 minutes compared to t=0 minutes and is expressed as % of the decrease in the ADP control samples after correcting for changes in the unaggregated control samples.
Regarding `CNc1cc2ccn(-c3ccc(NC(=O)NS(=O)(=O)c4ccc(Cl)s4)cc3)c(=O)c2cc1F` [Example 10, 5-chloro-N-[({4-[7-fluoro-6-(methylamino)-1-oxoisoquinolin-2(1H)-yl]phenyl}amino)carbonyl]thiophene-2-sulfonamide], the IC50 was less than 10 µM.
With `O=C(Nc1ccc(-n2ccc3cc(NC4CC4)c(F)cc3c2=O)cc1)NS(=O)(=O)c1ccc(Cl)s1` [Example 13, 5-chloro-N-[({4-[6-(cyclopropylamino)-7-fluoro-1-oxoisoquinolin-2(1H)-yl]phenyl}amino)carbonyl]thiophene-2-sulfonamide], the IC50 lay in the range of 10 to 30 µM.
For the molecule `O=CNc1cc2ccn(-c3ccc(NC(=O)NS(=O)(=O)c4ccc(Cl)s4)cc3)c(=O)c2cc1F` [Example 14, 5-chloro-N-[({4-[7-fluoro-6-(formylamino)-1-oxoisoquinolin-2(1H)-yl]phenyl}amino)carbonyl]thiophene-2-sulfonamide], the IC50 is more than 30 µM.
For the molecule `O=C(Nc1ccc(-n2ccc3cc(NCCF)c(F)cc3c2=O)cc1)NS(=O)(=O)c1ccc(Cl)s1` [Example 20, 5-chloro-N-[({4-[7-fluoro-6-[(2-fluoroethyl)amino]-1-oxoisoquinolin-2(1H)-yl]phenyl}amino)carbonyl]thiophene-2-sulfonamide], the IC50 is less than 10 µM.
As for `O=C(Nc1ccc(-n2ccc3cc(NCC(F)(F)F)c(F)cc3c2=O)cc1)NS(=O)(=O)c1ccc(Cl)s1` [Example 21, 5-chloro-N-[({4-[7-fluoro-1-oxo-6-[(2,2,2-trifluoroethyl)amino]isoquinolin-2(1H)-yl]phenyl}amino)carbonyl]thiophene-2-sulfonamide], the IC50 was in the range of 10 to 30 µM.
In the case of `C#CCNc1cc2ccn(-c3ccc(NC(=O)NS(=O)(=O)c4ccc(Cl)s4)cc3)c(=O)c2cc1F` [Example 22, 5-chloro-N-[({4-[7-fluoro-1-oxo-6-(prop-2-ynylamino)isoquinolin-2(1H)-yl]phenyl}amino)carbonyl]thiophene-2-sulfonamide], the IC50 is less than 10 µM.
With `O=C(Nc1ccc(-n2ccc3cc(NCc4ccc(Cl)cc4)c(F)cc3c2=O)cc1)NS(=O)(=O)c1ccc(Cl)s1` [Example 23, 5-chloro-N-[({4-[6-[(4-chlorobenzyl)amino]-7-fluoro-1-oxoisoquinolin-2(1H)-yl]phenyl}amino)carbonyl]thiophene-2-sulfonamide], the IC50 was less than 10 µM.
As to `CN(C)c1cc2ccn(-c3ccc(NC(=O)NS(=O)(=O)c4ccc(Cl)s4)cc3)c(=O)c2cc1F` [Example 26, 5-chloro-N-[({4-[6-(dimethylamino)-7-fluoro-1-oxoisoquinolin-2(1H)-yl]phenyl}amino)carbonyl]thiophene-2-sulfonamide], the IC50 is more than 30 µM.
With `CNc1cc2ccn(-c3ccc(NC(=O)NS(=O)(=O)c4cccs4)cc3)c(=O)c2cc1F` [Example 27, N-[({4-[7-fluoro-6-(methylamino)-1-oxoisoquinolin-2(1H)-yl]phenyl}amino)carbonyl]thiophene-2-sulfonamide], the IC50 is less than 10 µM.
For the molecule `CNc1cc2ccn(-c3ccc(NC(=O)NS(=O)(=O)c4ccc(Br)s4)cc3)c(=O)c2cc1F` [Example 28, 5-bromo-N-[({4-[7-fluoro-6-(methylamino)-1-oxoisoquinolin-2(1H)-yl]phenyl}amino)carbonyl]thiophene-2-sulfonamide], the IC50 was less than 10 µM.
For the molecule `CNc1cc2ccn(-c3ccc(NC(=O)NS(=O)(=O)c4ccc(C)s4)cc3)c(=O)c2cc1F` [Example 29], the IC50 was less than 10 µM.
The same measure, in the same setting: the figure for `CCc1ccc(S(=O)(=O)NC(=O)Nc2ccc(-n3ccc4cc(NC)c(F)cc4c3=O)cc2)s1` [Example 30] is less than 10 µM; for `CCCc1ccc(S(=O)(=O)NC(=O)Nc2ccc(-n3ccc4cc(NC)c(F)cc4c3=O)cc2)s1` [Example 31] it is 10 to 30 µM.
On the same count and under the same terms, next, `CNc1cc2ccn(-c3ccc(NC(=O)NS(=O)(=O)c4ccc(C(F)F)s4)cc3)c(=O)c2cc1F` [Example 32]: less than 10 µM; `CNc1cc2ccn(-c3ccc(NC(=O)NS(=O)(=O)c4ccc(C#N)s4)cc3)c(=O)c2cc1F` [Example 33]: 10 to 30 µM.
`CNc1cc2ccn(-c3ccc(NC(=O)NS(=O)(=O)c4ccc(OC)s4)cc3)c(=O)c2cc1F` [Example 34]: the IC50 was less than 10 µM.
On to `C#Cc1ccc(S(=O)(=O)NC(=O)Nc2ccc(-n3ccc4cc(NC)c(F)cc4c3=O)cc2)s1` [Example 35], for which the IC50 is less than 10 µM.
`CNc1cc2ccn(-c3ccc(NC(=O)NS(=O)(=O)c4cc(Cl)cs4)cc3)c(=O)c2cc1F` [Example 37]: the IC50 is less than 10 µM.
On the same count and under the same terms, the figure for `CNc1cc2ccn(-c3ccc(NC(=O)NS(=O)(=O)c4cc(C)cs4)cc3)c(=O)c2cc1F` [Example 38] is less than 10 µM; for `CNc1cc2ccn(-c3ccc(NC(=O)NS(=O)(=O)c4cc(C(F)F)cs4)cc3)c(=O)c2cc1F` [Example 39] it is 10 to 30 µM.
Same read-out and setting: next, `CNc1cc2ccn(-c3ccc(NC(=O)NS(=O)(=O)c4sccc4Cl)cc3)c(=O)c2cc1F` [Example 40]: more than 30 µM; `CNc1cc2ccn(-c3ccc(NC(=O)NS(=O)(=O)c4sccc4C)cc3)c(=O)c2cc1F` [Example 41]: 10 to 30 µM.
On the same count and under the same terms, the figure for `CNc1cc2ccn(-c3ccc(NC(=O)NS(=O)(=O)c4ccccc4)cc3)c(=O)c2cc1F` [Example 42] is less than 10 µM.
With `CNc1cc2ccn(-c3ccc(NC(=O)NS(=O)(=O)c4ccc(Cl)s4)cc3F)c(=O)c2cc1F` [Example 49, 5-chloro-N-[({3-fluoro-4-[7-fluoro-6-(methylamino)-1-oxoisoquinolin-2(1H)-yl]phenyl}amino)carbonyl]thiophene-2-sulfonamide], the IC50 was less than 10 µM.
On the same count and under the same terms, next, `CNc1cc2ccn(-c3ccc(NC(=O)NS(=O)(=O)c4ccc(Cl)s4)cc3Cl)c(=O)c2cc1F` [Example 50, 5-chloro-N-[({3-chloro-4-[7-fluoro-6-(methylamino)-1-oxoisoquinolin-2(1H)-yl]phenyl}amino)carbonyl]thiophene-2-sulfonamide]: less than 10 µM; `CNc1cc2ccn(-c3ccc(NC(=O)NS(=O)(=O)c4ccc(Cl)s4)cc3Br)c(=O)c2cc1F` [Example 51, N-[({3-bromo-4-[7-fluoro-6-(methylamino)-1-oxoisoquinolin-2(1H)-yl]phenyl}amino)carbonyl]-5-chlorothiophene-2-sulfonamide]: less than 10 µM; `CNc1cc2ccn(-c3ccc(NC(=O)NS(=O)(=O)c4ccc(Cl)s4)cc3C)c(=O)c2cc1F` [Example 52, 5-chloro-N-[({4-[7-fluoro-6-(methylamino)-1-oxoisoquinolin-2(1H)-yl]-3-methylphenyl}amino)carbonyl]thiophene-2-sulfonamide]: less than 10 µM.
Regarding `CNc1cc2ccn(-c3ccc(NC(=O)NS(=O)(=O)c4ccc(Cl)s4)c(C)c3)c(=O)c2cc1F` [Example 53, 5-chloro-N-[({4-[7-fluoro-6-(methylamino)-1-oxoisoquinolin-2(1H)-yl]-2-methylphenyl}amino)carbonyl]thiophene-2-sulfonamide], the IC50 is less than 10 µM.
As to `CNc1cc2ccn(-c3ccc(NC(=O)NS(=O)(=O)c4ccc(Cl)s4)cn3)c(=O)c2cc1F` [Example 54, 5-chloro-N-[({6-[7-fluoro-6-(methylamino)-1-oxoisoquinolin-2(1H)-yl]pyridin-3-yl}amino)carbonyl]thiophene-2-sulfonamide], the IC50 was less than 10 µM.
Still for that read-out and setting: the figure for `CNc1cc2ccn(-c3ccc(NC(=O)NS(=O)(=O)c4ccc(Cl)s4)c(C)n3)c(=O)c2cc1F` [Example 55, 5-chloro-N-[({6-[7-fluoro-6-(methylamino)-1-oxoisoquinolin-2(1H)-yl]-2-methylpyridin-3-yl}amino)carbonyl]thiophene-2-sulfonamide] is less than 10 µM; for `CNc1cc2ccn(-c3cc(C)c(NC(=O)NS(=O)(=O)c4ccc(Cl)s4)cn3)c(=O)c2cc1F` [Example 56, 5-chloro-N-[({6-[7-fluoro-6-(methylamino)-1-oxoisoquinolin-2(1H)-yl]-4-methylpyridin-3-yl}amino)carbonyl]thiophene-2-sulfonamide] it is less than 10 µM.
Same read-out and setting: next, `CNc1cc2ccn(-c3ncc(NC(=O)NS(=O)(=O)c4ccc(Cl)s4)cc3C)c(=O)c2cc1F` [Example 57, 5-chloro-N-[({6-[7-fluoro-6-(methylamino)-1-oxoisoquinolin-2(1H)-yl]-5-methylpyridin-3-yl}amino)carbonyl]thiophene-2-sulfonamide]: more than 30 µM; `CNc1cc2ccn(-c3ccc(NC(=O)NS(=O)(=O)c4ccc(Cl)s4)c(F)c3)c(=O)c2cc1F` [Example 58, 5-chloro-N-[({2-fluoro-4-[7-fluoro-6-(methylamino)-1-oxoisoquinolin-2(1H)-yl]phenyl}amino)carbonyl]thiophene-2-sulfonamide]: less than 10 µM.

Staying with this assay, now noted: Homo sapiens, Platelet, 5 min, read-out: Activity in the PRP assay.
As to `CCNc1cc2ccn(-c3ccc(NC(=O)NS(=O)(=O)c4ccc(Cl)s4)cc3)c(=O)c2cc1F` [Example 19, 5-chloro-N-[({4-[6-(ethylamino)-7-fluoro-1-oxoisoquinolin-2(1H)-yl]phenyl}amino)carbonyl]thiophene-2-sulfonamide], the IC50 was less than 10 µM.
